Tested on: non-transformant (wild-type Arabidopsis thaliana ecotype Col-0)
Assay: Evaluation of paraquat resistance: growth of germinated individuals in paraquat-containing ½ MS medium, non-transformant
Assay type: in vivo
Details: 3 μM of paraquat in ½ MS agar medium, cultured for eight days at 22° C., FIG. 2C
Experimental: Seeds derived from the produced AtMVR gene transformant and non-transformant (wild-type Arabidopsis thaliana ecotype Col-0) were sterilely inoculated in ½ MS agar (1%) medium (2.3 g/l of Murashige and Skoog Plant Salt Mixture (Wako Pure Chemical Industries Ltd.), 1.5 mg/l of thiamine hydrochloride, 2.5 mg/l of nicotinic acid, 0.25 mg/l of pyridoxine hydrochloride, 1.5% of sucrose) containing 3 μM of paraquat (methyl viologen (Sigma Chemical Co.)), and cultured for eight days at 22° C. under irradiation of light of 60 μmol/m^2/s (cycle of 16 hrs photoperiod/8 hrs dark period). After culture, the growth of germinated individuals was evaluated. The results are shown in FIG. 2, wherein FIG. 2B is a photograph showing growth of an AtMVR gene transformant and a non-transformant in a ½ MS culture medium without paraquat, and FIG. 2C is a photograph showing growth of an AtMVR gene transformant and a non-transformant in a ½ MS culture medium with paraquat. FIG. 2A is a schematic diagram showing the location of the AtMVR gene transformant and the non-transformant in FIGS. 2B and 2C.

## C[n+]1ccc(-c2cc[n+](C)cc2)cc1 [paraquat]
  growth of germinated individuals in a medium containing paraquat: developed chlorosis and died

From US20090064375A1, “Paraquat Resistance Gene and a Vascular Tissue- and Trichome-specific Promoter” (priority 2003, published 2009)
